Data as given in patent US9333195B2 (priority 1999, dated 2016).
Where a name gives a salt, the structure may show the parent alone.

target: human muscarinic receptors Hm3 (Homo sapiens (Human), UniProt P20309); assay: biochemical; type: binding; conditions: not given

Question: Which IC50 does the source give for `O=C(O[C@H]1C[N+]2(CC=Cc3ccccc3)CCC1CC2)C(O)(c1ccccc1)c1ccco1` (mixture of isomers) [Example 17, 3(R)-(2-Furan-2-yl-2-hydroxy-2-phenylacetoxy)-1-(3-phenylallyl)-1-azoniabicyclo[2.2.2]octane; bromide] here?
Answer: Its IC50 is 14 nM.

same assay, conditions: read-out: BINDING TO RECEPTOR M3 (IC50 nM)

Question: With `O=C(O[C@H]1C[N+]2(CCCOc3ccccc3)CCC1CC2)C(c1ccccc1)c1ccccc1` [Example 1, 3 (R)-Diphenylacetoxy-1-(3-phenoxypropyl)-1-azoniabicyclo[2.2. 2]octane; bromide] as the molecule, how does the IC50 read?
Answer: The IC50 was 31 nM.

Question: With `CC(C(=O)O[C@H]1C[N+]2(CCCOc3ccccc3)CCC1CC2)(c1ccccc1)c1ccccc1` [Example 7, 3(R)-(2,2-Diphenylpropionyloxy)-1-(3-phenoxypropyl)-1-azoniabicyclo[2.2.2]octane; bromide] as the molecule, how does the IC50 read?
Answer: Its IC50 is 22 nM.

Question: `O=C(O[C@H]1C[N+]2(CCCOc3ccccc3)CCC1CC2)C(O)(c1ccccc1)c1cccs1` (stereo partly drawn) [Example 8, 3(R)-(2-Hydroxy-2-phenyl-2-thien-2-ylacetoxy)-1-(3-phenoxypropyl)-1-azoniabicyclo[2.2.2]octane; bromide] was tested. Which IC50 did it give?
Answer: The IC50 was 4.8 nM.

Question: Which IC50 does the source give for `O=C(O[C@H]1C[N+]2(CCOc3ccccc3)CCC1CC2)C(O)(c1ccccc1)c1ccco1` (stereo partly drawn) [Example 18, 3(R)-(2-Furan-2-yl-2-hydroxy-2-phenylacetoxy)-1-(2-phenoxyethyl)-1-azoniabicyclo[2.2.2]octane; bromide] here?
Answer: The IC50 was 6.6 nM.

Question: With `O=C(O[C@H]1C[N+]2(CCCOc3ccccc3)CCC1CC2)C(O)(c1ccccc1)c1ccco1` (stereo partly drawn) [Example 20, 3(R)-(2-Furan-2-yl-2-hydroxy-2-phenylacetoxy)-1-(3-phenoxypropyl)-1-azoniabicyclo[2.2.2]octane; bromide] as the molecule, how does the IC50 read?
Answer: The IC50 was 6.8 nM.

Question: `O=C(O[C@H]1C[N+]2(CCCOc3ccccc3)CCC1CC2)C(c1cccs1)c1cccs1` [Example 35, 3(R)-(2,2-Dithien-2-ylacetoxy)-1-(3-phenoxypropyl)-1-azoniabicyclo[2.2.2]octane; bromide] was tested. Which IC50 did it give?
Answer: The IC50 was 13 nM.

Question: How did the IC50 turn out when `O=C(O[C@H]1C[N+]2(CCCCc3ccccc3)CCC1CC2)C(O)(c1cccs1)c1cccs1` [Example 39, 3(R)-(2-Hydroxy-2,2-dithien-2-ylacetoxy)-1-(4-phenylbutyl)-1-azoniabicyclo[2.2.2]octane; bromide] was run?
Answer: The IC50 was 3.8 nM.

Question: For `O=C(O[C@H]1C[N+]2(CCCOc3ccc(F)cc3)CCC1CC2)C(O)(c1cccs1)c1cccs1` [Example 53, 1-[3-(4-Fluorophenoxy)propyl]-3(R)-(2-hydroxy-2,2-dithien-2-ylacetoxy)-1-azoniabicyclo[2.2.2]octane; chloride], which IC50 is on record?
Answer: The IC50 was 5.6 nM.

Question: How did the IC50 turn out when `O=C(O[C@H]1C[N+]2(CCCOc3ccccc3O)CCC1CC2)C(O)(c1cccs1)c1cccs1` [Example 71, 3(R)-(2-Hydroxy-2,2-dithien-2-ylacetoxy)-1-[3-(2-hydroxyphenoxy)propyl]-1-azoniabicyclo[2.2.2]octane; trifluoroacetate] was run?
Answer: Its IC50 is 8.2 nM.

Question: How did the IC50 turn out when `O=C(O[C@H]1C[N+]2(CCCn3cccc3)CCC1CC2)C(O)(c1cccs1)c1cccs1` [Example 74, 3(R)-(2-Hydroxy-2,2-dithien-2-ylacetoxy)-1-(3-pyrrol-1-ylpropyl)-1-azoniabicyclo[2.2.2]octane; trifluoroacetate] was run?
Answer: Its IC50 is 16 nM.

Question: Which IC50 does the source give for `O=C(O[C@H]1C[N+]2(CCCc3cccs3)CCC1CC2)C(O)(c1cccs1)c1cccs1` [Example 78, 3(R)-(2-Hydroxy-2,2-dithien-2-ylacetoxy)-1-(3-thien-2-ylpropyl)-1-azoniabicyclo[2.2.2]octane; bromide] here?
Answer: The IC50 was 5 nM.

Question: For `O=C(O[C@H]1C[N+]2(CCOCc3ccccc3)CCC1CC2)C(O)(c1cccs1)c1cccs1` [Example 84, 1-(2-Benzyloxyethyl)-3(R)-(2-hydroxy-2,2-dithien-2-ylacetoxy)-1-azoniabicyclo[2.2.2]octane; trifluoroacetate], which IC50 is on record?
Answer: The IC50 was 9.9 nM.

Question: `O=C(O[C@H]1C[N+]2(CCCOc3ccccc3)CCC1CC2)C(O)(c1ccsc1)c1ccsc1` [Example 89, 3(R)-(2-Hydroxy-2,2-dithien-3-ylacetoxy)-1-(3-phenoxypropyl)-1-azoniabicyclo[2.2.2]octane; bromide] was tested. Which IC50 did it give?
Answer: The IC50 was 5.4 nM.

Question: With `CC1(C(=O)O[C@H]2C[N+]3(CC=Cc4ccccc4)CCC2CC3)c2ccccc2-c2ccccc21` [Example 114, 3(R)-(9-Methyl-9[H]-fluorene-9-carbonyloxy)-1-(3-phenylallyl)-1-azoniabicyclo[2.2.2]octane; bromide] as the molecule, how does the IC50 read?
Answer: Its IC50 is 14 nM.

Question: Which IC50 does the source give for `CC1(C(=O)O[C@H]2C[N+]3(CCCOc4ccccc4)CCC2CC3)c2ccccc2-c2ccccc21` [Example 116, 3(R)-(9-Methyl-9[H]-fluorene-9-carbonyloxy)-1-(3-phenoxypropyl)-1-azoniabicyclo[2.2.2]octane; bromide] here?
Answer: The IC50 was 23 nM.

Question: How did the IC50 turn out when `O=C(O[C@H]1C[N+]2(CCCc3cccs3)CCC1CC2)C1(O)c2ccccc2Oc2ccccc21` [Example 138, 3(R)-(9-Hydroxy-9H-xanthene-9-carbonyloxy)-1-(3-thien-2-ylpropyl)-1-azoniabicyclo[2.2.2]octane; bromide] was run?
Answer: The IC50 was 19 nM.
